Results as given in patent US20060100245A1, “Substituted biphenyl-4-carboxylic acid arylamide analogues” (Neurogen Corporation, priority 2002, published 2006).

Each molecule was assayed against T1, human capsaicin receptor (VR1) (Homo sapiens, UniProt Q8NER1) (assay: Capsaicin receptor binding assay ([3H]RTX competition)). Conditions: read-out: Ki.
T1 construct: transfected with the pBK-CMV expression construct encoding the full length human capsaicin receptor; expressed in transfected cells
From the text: This Example illustrates the preparation of VR1-transfected cells and membrane preparations for use in binding assays (Example 5) and functional assays (Example 6).
A cDNA encoding full length human capsaicin receptor (SEQ ID NO: 1, 2 or 3 of U.S. Pat. No. 6,482,611) was subcloned in the plasmid pBK-CMV (Stratagene, La Jolla, Calif.) for recombinant expression in mammalian cells.
Human embryonic kidney (HEK293) cells were transfected with the pBK-CMV expression construct encoding the full length human capsaicin receptor using standard methods. The transfected cells were selected for two weeks in media containing G418 ([…]) to obtain a pool of stably transfected cells. Independent clones were isolated from this pool by limiting dilution to obtain clonal stable cell lines for use in subsequent experiments.
For radioligand binding experiments, cells were seeded in T175 cell culture flasks in media without antibiotics and grown to approximately 90% confluency. The flasks were then washed with PBS and harvested in PBS containing 5 mM EDTA. The cells were pelleted by gentle centrifugation and stored at −80° C. until assayed.
Previously frozen cells were disrupted with the aid of a tissue homogenizer in ice-cold HEPES homogenization buffer (5mM KCl 5, 5.8 mM NaCl, 0.75 mM CaCl2, 2 mM MgCl2, 320 mM sucrose, and 10 mM HEPES pH 7.4). Tissue homogenates were first centrifuged for 10 minutes at 1000×g (4° C.) to remove the nuclear fraction and debris, and then the supernatant from the first centrifugation is further centrifuged for 30 minutes at 35,000×g (4° C.) to obtain a partially purified membrane fraction. Membranes were resuspended in the HEPES homogenization buffer prior to the assay. An aliquot of this membrane homogenate is used to determine protein concentration via the Bradford method (BIO-RAD Protein Assay Kit, #500-0001, BIO-RAD, Hercules, Calif.).
This Example illustrates a representative assay of capsaicin receptor binding that may be used to determine the binding affinity of compounds for the capsaicin (VR1) receptor.
Binding studies with [^3H] Resiniferatoxin (RTX) are carried out essentially as described by Szallasi and Blumberg (1992) J. Pharmacol. Exp. Ter. 262: 883-888. In this protocol, non-specific RTX binding is reduced by adding bovine alpha, acid glycoprotein (100 μg per tube) after the binding reaction has been terminated.
[^3H] RTX (37 Ci/mmol) is synthesized by and obtained from the Chemical Synthesis and Analysis Laboratory, National Cancer Institute-Frederick Cancer Research and Development Center, Frederick, Md. [^3H] RTX may also be obtained from commercial vendors (e.g., Amersham Pharmacia Biotech, Inc.; Piscataway, N.J.).
The membrane homogenate of Example 4 is centrifuged as before and resuspended to a protein concentration of 333 μg/ml in homogenization buffer. Binding assay mixtures are set up on ice and contain [^3H]JRTX (specific activity 2200 mCi/ml), 2 μl non-radioactive test compound, 0.25 mg/ml bovine serum albumin (Cohn fraction V), and 5×10^4−1×10^5 VR1-transfected cells. The final volume is adjusted to 500 μl (for competition binding assays) or 1,000 μl (for saturation binding assays) with the ice-cold HEPES homogenization buffer solution (pH 7.4) described above. Non-specific binding is defined as that occurring in the presence of 1 μM non-radioactive RTX (Alexis Corp.; San Diego, Calif.). For saturation binding, [^3H]RTX is added in the concentration range of […], using 1 to 2 dilutions. Typically 11 concentration points are collected per saturation binding curve.
Competition binding assays are performed in the presence of 60 pM [^3H]RTX and various concentrations of test compound. The binding reactions are initiated by transferring the assay mixtures into a 37° C. water bath and are terminated following a 60 minute incubation period by cooling the tubes on ice.

T1 sequence (Q8NER1 whole entry): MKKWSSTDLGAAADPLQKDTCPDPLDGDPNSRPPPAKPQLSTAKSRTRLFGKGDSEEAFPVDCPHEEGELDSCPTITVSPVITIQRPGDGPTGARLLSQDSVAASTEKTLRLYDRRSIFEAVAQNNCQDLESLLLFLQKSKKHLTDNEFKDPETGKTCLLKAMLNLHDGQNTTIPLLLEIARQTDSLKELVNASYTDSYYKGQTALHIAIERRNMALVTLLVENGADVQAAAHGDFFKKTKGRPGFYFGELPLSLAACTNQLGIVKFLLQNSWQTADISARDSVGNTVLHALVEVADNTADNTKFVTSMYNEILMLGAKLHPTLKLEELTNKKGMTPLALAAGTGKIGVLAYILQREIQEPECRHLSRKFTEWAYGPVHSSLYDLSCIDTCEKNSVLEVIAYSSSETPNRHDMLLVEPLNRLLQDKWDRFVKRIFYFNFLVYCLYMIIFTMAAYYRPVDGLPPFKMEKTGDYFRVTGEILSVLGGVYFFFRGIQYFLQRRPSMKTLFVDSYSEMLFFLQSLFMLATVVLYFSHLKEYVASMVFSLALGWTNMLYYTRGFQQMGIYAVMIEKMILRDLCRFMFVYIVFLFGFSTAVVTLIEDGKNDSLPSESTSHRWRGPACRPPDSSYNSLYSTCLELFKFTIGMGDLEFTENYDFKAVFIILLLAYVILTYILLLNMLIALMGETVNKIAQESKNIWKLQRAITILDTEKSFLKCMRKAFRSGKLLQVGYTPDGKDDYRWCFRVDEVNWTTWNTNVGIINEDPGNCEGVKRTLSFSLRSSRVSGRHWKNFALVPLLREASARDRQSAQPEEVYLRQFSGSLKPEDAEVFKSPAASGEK

| SMILES | Ki |
| --- | --- |
| CC(=O)c1ccccc1-c1ccc(C(=O)Nc2ccc(C(C)(C)C)cc2)cn1 [Compound 60, 6-(2-Acetyl-phenyl)-N-(4-tert-butyl-phenyl)-nicotinamide] | < 1000 nM |
| Cc1ccc(NC(=O)c2ccc(-c3cccc(OC(F)(F)F)c3)nc2)cc1C [Compound 242, N-(3,4-Dimethyl-phenyl)-6-(3-trifluoromethoxy-phenyl)-nicotinamide] | < 1000 nM |
| Cc1nc(-c2ncccc2C(F)(F)F)ccc1C(=O)Nc1ccc(C(F)(F)F)cc1 [Compound 181, 6-Methyl-3′-trifluoromethyl-[2,2′]bipyridinyl-5-carboxylic acid (4-trifluoromethyl-phenyl)-amide] | < 1000 nM |
| Cc1cc(C)cc(-c2ccc(C(=O)Nc3ccc(C)c(F)c3)cn2)c1 [Compound 110, 6-(3,5-Dimethyl-phenyl)-N-(3-fluoro-4-methyl-phenyl)-nicotinamide] | < 1000 nM |
| COc1cccc(NC(=O)c2ccc(-c3ccccc3F)nc2)c1 [Compound 87, 6-(2-Fluoro-phenyl)-N-(3-methoxy-phenyl)-nicotinamide] | < 1000 nM |
| CC(C)(C)c1ccc(NC(=O)c2ccc(-c3ncccc3N)cc2)cc1 [Compound 23, 4-(3-Amino-pyridin-2-yl)-N-(4-tert-butyl-phenyl)-benzamide] | < 1000 nM |
| CC(C)(C#N)c1ccc(NC(=O)c2ccc(-c3ncccc3Cl)cc2)cc1 [Compound 32, 4-(3-Chloro-pyridin-2-yl)-N-[4-(cyano-dimethyl-methyl)-phenyl]-benzamide] | < 1000 nM |
| Cc1cccc(-c2ccc(C(=O)Nc3ccc4c(c3)OCCO4)cn2)c1 [Compound 202, N-(2,3-Dihydro-benzo[1,4]dioxin-6-yl)-6-m-tolyl-nicotinamide] | < 1000 nM |
| COc1ccc(F)cc1-c1ccc(C(=O)Nc2ccc(C(C)(C)C)cc2Cl)cn1 [Compound 391, N-(4-tert-Butyl-2-chloro-phenyl)-6-(5-fluoro-2-methoxy-phenyl)-nicotinamide] | < 1000 nM |
| CCOc1cccc(-c2ccc(C(=O)Nc3ccc4c(c3)CCC4)cn2)c1 [Compound 124, 6-(3-Ethoxy-phenyl)-N-indan-5-yl-nicotinamide] | < 1000 nM |
| COc1cccc(-c2ccc(C(=O)Nc3ccc(C(C)(C)C)cc3)cn2)c1 [Compound 449, N-(4-tert-Butyl-phenyl)-6-(3-methoxy-phenyl)-nicotinamide] | < 1000 nM |
| O=C(Nc1ccc(Br)c(Cl)c1)c1ccc(-c2cccc(F)c2)nc1 [Compound 318, N-(4-Bromo-3-chloro-phenyl)-6-(3-fluoro-phenyl)-nicotinamide] | < 1000 nM |
| CC(C)(C)c1ccc(NC(=O)c2ccc(-c3ncccc3NS(=O)(=O)Cc3ccccc3)cc2)cc1 [Compound 417, N-(4-tert-Butyl-phenyl)-4-(3-phenylinethanesulfonylamino-pyridin-2-yl)-benzamide] | < 1000 nM |
| O=C(Nc1cnc2ccccc2c1)c1ccc(-c2ccccc2Cl)nc1 [Compound 82, 6-(2-Chloro-phenyl)-N-quinolin-3-yl-nicotinamide] | < 1000 nM |
| COc1cccc(-c2ccc(C(=O)Nc3ccc(C)c(F)c3)cn2)c1 [Compound 268, N-(3-Fluoro-4-methyl-phenyl)-6-(3-methoxy-phenyl)-nicotinamide] | < 1000 nM |
| O=C(Nc1ccc2c(c1)OCCCO2)c1ccc(-c2ccccc2)nc1 [Compound 230, N-(3,4-Dihydro-2H-benzo[b][1,4]dioxepin-7-yl)-6-phenyl-nicotinamide] | < 1000 nM |
| O=C(Nc1ccc(C(F)(F)F)cc1)c1ccc(-c2ncccc2F)cc1 [Compound 35, 4-(3-Fluoro-pyridin-2-yl)-N-(4-trifluoromethyl-phenyl)-benzamide] | < 1000 nM |
| Cc1cccc(-c2ccc(C(=O)Nc3ccc(C(C)C)cc3)cn2)c1 [Compound 383, N-(4-Isopropyl-phenyl)-6-m-tolyl-nicotinamide] | < 1000 nM |

| SMILES | Ki |
| --- | --- |
| CC(C)c1cccc(-c2ccc(C(=O)Nc3ccc4c(c3)OCCCO4)cn2)c1 [Compound 221, N-(3,4-Dihydro-2H-benzo[b][1,4]dioxepin-7-yl)-6-(3-isopropyl-phenyl)-nicotinamide] | < 1000 nM |
| O=C(Nc1ccc2c(c1)OCCO2)c1ccc(-c2ccccc2F)nc1 [Compound 192, N-(2,3-Dihydro-benzo[1,4]dioxin-6-yl)-6-(2-fluoro-phenyl)-nicotinamide] | < 1000 nM |
| CC(C)(C)c1ccc(NC(=O)c2ccc(-c3ncccc3CO)cc2)cc1 [Compound 412, N-(4-tert-Butyl-phenyl)-4-(3-hydroxymethyl-pyridin-2-yl)-benzamide] | < 1000 nM |
| CS(=O)(=O)Nc1cc(-c2ncccc2C(F)(F)F)ccc1C(=O)Nc1ccc(C(F)(F)F)cc1 [Compound 17, 2-Methanesulfonylamino-N-(4-trifluoromethyl-phenyl)-4-(3-trifluoromethyl-pyridin-2-yl)-benzamide] | < 1000 nM |
| CCCc1ccc(NC(=O)c2ccc(-c3ccccc3Cl)nc2)cc1 [Compound 77, 6-(2-Chloro-phenyl)-N-(4-propyl-phenyl)-nicotinamide] | < 1000 nM |
| Cc1ccc(NC(=O)c2ccc(-c3cccc(F)c3)nc2)cc1F [Compound 266, N-(3-Fluoro-4-methyl-phenyl)-6-(3-fluoro-phenyl)-nicotinamide] | < 1000 nM |
| Cc1ccc(NC(=O)c2ccc(-c3cccc(C(C)C)c3)nc2)cc1F [Compound 267, N-(3-Fluoro-4-methyl-phenyl)-6-(3-isopropyl-phenyl)-nicotinamide] | < 1000 nM |
| CC(C)(C)c1ccc(NC(=O)c2ccc(-c3ncccc3C(F)(F)F)cc2)cc1 [Compound 421, N-(4-tert-Butyl-phenyl)-4-(3-trifluoromethyl-pyridin-2-yl)-benzamide] | < 1000 nM |
| Nc1cc(-c2ncccc2C(F)(F)F)ccc1C(=O)Nc1ccc(C(F)(F)F)cc1 [Compound 13, 2-Amino-N-(4-trifluoromethyl-phenyl)-4-(3-trifluoromethyl-pyridin-2-yl)-benzamide] | < 1000 nM |
| O=C(Nc1ccc2c(c1)CCC2)c1ccc(-c2ccccc2F)nc1 [Compound 93, 6-(2-Fluoro-phenyl)-N-indan-5-yl-nicotinamide] | < 1000 nM |
| Cc1ccccc1-c1ccc(C(=O)Nc2ccc3c(c2)CCC3)cn1 [Compound 470, N-Indan-5-yl-6-o-tolyl-nicotinamide] | < 1000 nM |
| O=C(Nc1ccc(C(F)(F)F)cn1)c1ccc(-c2ncccc2Cl)cc1 [Compound 28, 4-(3-Chloro-pyridin-2-yl)-N-(5-trifluoromethyl-pyridin-2-yl)-benzamide] | < 1000 nM |
| CC(C)(C)c1ccc(NC(=O)c2ccc(-c3ccccn3)nc2)cc1 [Compound 9, [2,2′]Bipyridinyl-5-carboxylic acid (4-tert-butyl-phenyl)-amide] | < 1000 nM |
| CC(C)(C)[C@H]1CC[C@@H](NC(=O)c2ccc(-c3ncccc3Cl)cc2)CC1 [Compound 393, N-(4-tert-Butyl-cyclohexyl)-4-(3-chloro-pyridin-2-yl)-benzamide (cis)] | < 1000 nM |
| CCOc1cccc(-c2ccc(C(=O)Nc3ccc4sc(C)nc4c3)cn2)c1 [Compound 119, 6-(3-Ethoxy-phenyl)-N-(2-smethyl-benzothiazol-5-yl)-nicotinamide] | < 1000 nM |
| CC(C)(C)c1ccc(NC(=O)c2ccc(-c3ccncc3)cc2)cc1 [Compound 432, N-(4-tert-Butyl-phenyl)-4-pyridin-4-yl-benzamide] | < 1000 nM |
| CC(C)(C)c1ccc(NC(=O)c2ccc(-c3ccc4[nH]ccc4c3)cc2)cc1 [Compound 396, N-(4-tert-Butyl-phenyl)-4-(1H-indol-5-yl)-benzamide] | < 1000 nM |
| CC(C)(C)c1ccc(NC(=O)c2ccc(-c3ncccc3-c3nnco3)cc2)cc1 [Compound 401, N-(4-tert-Butyl-phenyl)-4-(3-[1,3,4]oxadiazol-2-yl-pyridin-2-yl)-benzamide] | < 1000 nM |
